ChEMBL document CHEMBL5620381, “Design, synthesis and antitubercular activity of novel N-(amino)piperazinyl benzothiazinones with improved safety” (Eur J Med Chem, 2023)
Converted amounts (≈) assume the structure as drawn.

How the values were obtained:
[1] = tested on: Mycobacterium tuberculosis; test: Antitubercular activity against multidrug resistant Mycobacterium tuberculosis 16995 incubated for 8 days by MABA; assay type: functional; conditions: Mycobacterium tuberculosis, 16995, 192 h; time 8 day
[2] = tested on: Mycobacterium tuberculosis; test: Antitubercular activity against multidrug resistant Mycobacterium tuberculosis 16883 incubated for 8 days by MABA; assay type: functional; conditions: Mycobacterium tuberculosis, 16883, 192 h; time 8 day

| SMILES | MIC [1] [ng/mL] | MIC [2] [ng/mL] |
| --- | --- | --- |
| O=c1nc(N2CCN(NC3CCCCC3)CC2)sc2c([N+](=O)[O-])cc(C(F)(F)F)cc12 | < 1 | < 1 |
| CON=C1CCC(N(C)N2CCN(c3nc(=O)c4cc(C(F)(F)F)cc([N+](=O)[O-])c4s3)CC2)CC1 (stereo not drawn) | < 1 | < 1 |
| O=c1nc(N2CCN(NC3CCCCCCC3)CC2)sc2c([N+](=O)[O-])cc(C(F)(F)F)cc12 | < 1 | < 1 |
| CN(C1CCC(C)(C)CC1)N1CCN(c2nc(=O)c3cc(C(F)(F)F)cc([N+](=O)[O-])c3s2)CC1 | < 1 | < 1 |
| CN(C1C2CC3CC(C2)CC1C3)N1CCN(c2nc(=O)c3cc(C(F)(F)F)cc([N+](=O)[O-])c3s2)CC1 (stereo not drawn) | 1.5 (≈ 2.86 nM) | < 1 |
| CC1CC(N(C)N2CCN(c3nc(=O)c4cc(C(F)(F)F)cc([N+](=O)[O-])c4s3)CC2)CC(C)(C)C1 (stereo not drawn) | < 1 | < 1 |
| CON=C1CCC(N(C)N2CCN(c3nc(=O)c4cc(C(F)(F)F)cc([N+](=O)[O-])c4s3)CC2(C)C)CC1 (stereo not drawn) | 15.7 (≈ 28.9 nM) | 125 (≈ 231 nM) |
| CN(C1CCC2(CCCCC2)CC1)N1CCN(c2nc(=O)c3cc(C(F)(F)F)cc([N+](=O)[O-])c3s2)CC1 | < 1 | < 1 |
| CC1CCC(C)C(N(C)N2CCN(c3nc(=O)c4cc(C(F)(F)F)cc([N+](=O)[O-])c4s3)CC2)C1 (stereo not drawn) | < 1 | < 1 |
| CN(C1CCCCC1)N1CCN(c2nc(=O)c3cc(C(F)(F)F)cc([N+](=O)[O-])c3s2)CC1 | < 1 | < 1 |
| CN(C1CCC(C)(C)CC1)N1CCN(c2nc(=O)c3cc(C(F)(F)F)cc([N+](=O)[O-])c3s2)CC1(C)C | < 1 | < 1 |
| CN(C1CCCCC1)N1CCN(c2nc(=O)c3cc(C(F)(F)F)cc([N+](=O)[O-])c3s2)CC1(C)C | < 1 | < 1 |
| CC1CCC(N(C)N2CCN(c3nc(=O)c4cc(C(F)(F)F)cc([N+](=O)[O-])c4s3)CC2)CC1 (stereo not drawn) | < 1 | < 1 |
| CN(C1CCCCCCC1)N1CCN(c2nc(=O)c3cc(C(F)(F)F)cc([N+](=O)[O-])c3s2)CC1 | < 1 | < 1 |
| CC1(C)CCC(NN2CCN(c3nc(=O)c4cc(C(F)(F)F)cc([N+](=O)[O-])c4s3)CC2)CC1 | < 1 | < 1 |
| CN(C1CCC(=NOC(C)(C)C)CC1)N1CCN(c2nc(=O)c3cc(C(F)(F)F)cc([N+](=O)[O-])c3s2)CC1 (stereo not drawn) | 12.8 (≈ 23 nM) | 5.25 (≈ 9.43 nM) |
| O=c1nc(N2CCN(NC3CCC(F)(F)CC3)CC2)sc2c([N+](=O)[O-])cc(C(F)(F)F)cc12 | 4 (≈ 8.11 nM) | 3.15 (≈ 6.38 nM) |
| CC1CCCCC1NN1CCN(c2nc(=O)c3cc(C(F)(F)F)cc([N+](=O)[O-])c3s2)CC1 (stereo not drawn) | < 1 | < 1 |
| CON=C1CCC(N(C)N2CCN(c3nc(=O)c4cc(C(F)(F)F)cc([N+](=O)[O-])c4s3)CC2C)CC1 (stereo not drawn) | 14.9 (≈ 28.2 nM) | 6.65 (≈ 12.6 nM) |
| CN(C1CCC(F)(F)CC1)N1CCN(c2nc(=O)c3cc(C(F)(F)F)cc([N+](=O)[O-])c3s2)CC1 | < 1 | < 1 |
| CCON=C1CCC(N(C)N2CCN(c3nc(=O)c4cc(C(F)(F)F)cc([N+](=O)[O-])c4s3)CC2)CC1 (stereo not drawn) | 11.2 (≈ 21.2 nM) | 11.4 (≈ 21.7 nM) |
| CC1CN(c2nc(=O)c3cc(C(F)(F)F)cc([N+](=O)[O-])c3s2)CCN1N(C)C1CCC(C)(C)CC1 (stereo not drawn) | < 1 | < 1 |
| CC1CCC(NN2CCN(c3nc(=O)c4cc(C(F)(F)F)cc([N+](=O)[O-])c4s3)CC2)CC1 (stereo not drawn) | < 1 | < 1 |
| CC1CN(c2nc(=O)c3cc(C(F)(F)F)cc([N+](=O)[O-])c3s2)CCN1N(C)C1CCCCC1 (stereo not drawn) | < 1 | < 1 |
| CC1CCCCC1N(C)N1CCN(c2nc(=O)c3cc(C(F)(F)F)cc([N+](=O)[O-])c3s2)CC1 (stereo not drawn) | < 1 | < 1 |
| CN(CC1CCC(F)(F)CC1)N1CCN(c2nc(=O)c3cc(C(F)(F)F)cc([N+](=O)[O-])c3s2)CC1 | < 1 | < 1 |
| NNC(=O)c1ccncc1 [ISONIAZID] | > 20000 | > 20000 |
| O=c1nc(N2CCN(CC3CCCCC3)CC2)sc2c([N+](=O)[O-])cc(C(F)(F)F)cc12 [MACOZINONE] | < 1 | < 1 |
| CO[C@H]1/C=C/O[C@@]2(C)Oc3c(C)c(O)c4c(O)c(c(/C=N/N5CCN(C)CC5)c(O)c4c3C2=O)NC(=O)/C(C)=C\C=C\[C@H](C)[C@H](O)[C@@H](C)[C@@H](O)[C@@H](C)[C@H](OC(C)=O)[C@@H]1C [RIFAMPIN] | > 20000 | > 20000 |
